Test results published in US20220340665A1, “INHIBITOR AGAINST EXPRESSION OF IMMUNE CHECKPOINT MOLECULE” (RENASCIENCE INC., priority 2019, published 2022).
Entries after “also recorded” stand apart in the source; their conditions may differ.

Key:
[1] = tested on: M2 macrophages (CD11b+CD206+); test: PD-L1 expression in M2 macrophages of orally dosed mice (Experimental Example 7); assay type: in vivo, mice (C57BL6); conditions: peripheral blood; 10 mg/kg orally once daily, 7 days; vs vehicle
Method: Mice (C57BL6) were orally administered with the PAI-1 inhibitor once daily at 10 mg/kg for a total of 7 days. On the next day of the final administration, the peripheral blood or the spleen was collected from the mice. The spleen was mechanically dispersed through nylon mesh. The peripheral blood and spleen cells were independently hemolyzed with an ammonium chloride solution, and the PD-L1 expression level in M2 macrophages (CD11b^+CD206^+) was determined with a flow cytometer. As a comparative control experiment, the peripheral blood or the spleen was collected in the same manner from a mouse group to which only physiological saline (vehicle) was administered to determine the PD-L1 expression level in M2 macrophages (CD11b^+CD206^+).

[2] = tested on: mouse leukemia cell line (32Dp210); test: Size of subcutaneous 32Dp210 tumor mass in mice (Experimental Example 10); assay type: in vivo, mice (C3H/HEJ); conditions: 32Dp210 subcutaneous, 10 mg/kg orally once daily, 7 days, n=2, listed as PAI-1 inhibitor
Method: Specifically, 5×10^5 cells of a mouse leukemia cell line (32Dp210) were transplanted subcutaneously in mice (C3H/HEJ), and one week later, engraftment of more than 5 mm of a tumor mass in the major axis was confirmed. Subsequently, the PAI-1 inhibitor was orally administered once daily at 10 mg/kg for a total of 7 days. On the next day of the final administration, the size of the tumor mass ([…]) was measured. As a comparative control experiment, the size of the tumor mass was measured in the same manner in terms of a mouse group to which only physiological saline (vehicle) was orally administered instead of the PAI-1 inhibitor.

O=C(Nc1ccc(Cl)cc1C(=O)[O-])c1cccc(-c2cccc3cccnc23)c1.[Na+] [Example 68, 5-chloro-2-(((3-(quinolin-8-yl)phenyl)carbonyl)amino)sodium benzoate]
PD-L1 expression level in M2 macrophages [1]: reduction in the PD-L1 expression level | size of the tumor mass [2]: tumor mass disappearance; also recorded: loss of tumor mass
